Patent US20200000969A1, “HYALURONIC ACID COMPOSITIONS INCLUDING MEPIVACAINE” (LABORATOIRES VIVACY, priority 2013, published 2020)

Experiments:
[1] = cited from earlier work
[2] = Release kinetics of local anesthetic from hyaluronic acid gel by dialysis, UV-visible spectrophotometry; format: physicochemical; settings: HA 3×10^6 Da, X=0.12, 20 mg/g; for mass percentage of local anesthetic in the hyaluronic acid gel: initial 3 mg/g, 37° C., physiological saline
Description: The release kinetics were, however, studied at 37° C. in physiological saline medium. Monitoring by UV-visible spectrophotometry is performed to assay the local anesthetic present in the gel.

SMILES: Cc1cccc(C)c1NC(=O)C1CCCCN1C (stereo not drawn) [Mepivacaine, mepivacaine]
- pKa [1]: 7.7
- release kinetics from the hyaluronic acid gel (FIG. 1), lidocaine versus mepivacaine ([2]; 3 mg/g, dialysis at 37° C. in physiological saline): comparable
- mass percentage of local anesthetic in the hyaluronic acid gel ([2]; dialysis time 0 h): 0.290 mass %
- mass percentage of local anesthetic in the hyaluronic acid gel ([2]; dialysis time 1.5 h): 0.133 mass %
- mass percentage of local anesthetic in the hyaluronic acid gel ([2]; dialysis time 5 h): 0.100 mass %
- mass percentage of local anesthetic in the hyaluronic acid gel ([2]; dialysis time 7 h): 0.098 mass %
- mass percentage of local anesthetic in the hyaluronic acid gel ([2]; dialysis time 23 h): 0.086 mass %
- mass percentage of local anesthetic in the hyaluronic acid gel ([2]; dialysis time 48 h): 0.077 mass %
- mass percentage of local anesthetic in the hyaluronic acid gel ([2]; dialysis time 72 h): 0.075 mass %
